Measured values from patent US9630961B2, “Arginine methyltransferase inhibitors and uses thereof” (Epizyme, Inc., priority 2013, dated 2017).

Molecular target: T1, PRMT1 (Homo sapiens, UniProt Q99873)
T1 construct: GST-tagged PRMT1; made in house; host or cells: High Five insect cells (baculovirus)
Assay: PRMT1 Biochemical Assay (3H-SAM Flashplate, peptide substrate)
Settings: 30 min preincubation, room temperature
Excerpt: S-adenosylmethionine (SAM), S-adenosylhomocysteine (SAH), bicine, Tween20, dimethylsulfoxide (DMSO), bovine skin gelatin (BSG), and Tris(2-carboxyethyl)phosphine hydrochloride solution (TCEP) were purchased from Sigma-Aldrich at the highest level of purity possible. ^3H-SAM was purchase from American Radiolabeled Chemicals with a specific activity of 80 Ci/mmol. 384-well streptavidin Flashplates were purchased from PerkinElmer.
Peptide representative of human histone H4 residues 36-50 was synthesized with an N-terminal linker-affinity tag motif and a C-terminal amide cap by 21st Century Biochemicals. The peptide was purified by high-performance liquid chromatography (HPLC) to greater than 95% purity and confirmed by liquid chromatography mass spectrometry (LC-MS). The sequence was Biot-Ahx-[…]-amide (SEQ ID NO.: 1).
Full-length human PRMT1 isoform 1 (NM_001536.5) transcript clone was amplified from an HEK 293 cDNA library, incorporating flanking 5′ sequence encoding a FLAG tag ([…]) (SEQ ID NO.:2) fused directly to Met 1 of PRMT1. The amplified gene was subcloned into pFastBacI (Life Technologies) modified to encode an N-terminal GST tag and a TEV cleavage sequence ([…] […] […] […]) (SEQ ID NO.:3) fused to Asp of the Flag tag of PRMT1.
Recombinant baculovirus were generated according to Bac-to-Bac kit instructions (Life Technologies). Protein over-expression was accomplished by infecting exponentially growing High Five insect cell culture at 1.5×10^6 cell/ml with 1:100 ratio of virus. Infections were carried out at 27° C. for 48 hours, harvested by centrifugation, and stored at −80° C. for purification.
General Procedure for PRMT1 Enzyme Assays on Peptide Substrates.
The assays were all performed in a buffer consisting of 20 mM Bicine (pH=7.6), 1 mM TCEP, 0.005% BSG, and 0.002% Tween 20, prepared on the day of use. Compounds in 100% DMSO (1 ul) were spotted into a polypropylene 384-well V-bottom plates (Greiner) using a Platemate Plus outfitted with a 384-channel head (Thermo Scientific). DMSO (1 ul) was added to Columns 11, 12, 23, 24, rows A-H for the maximum signal control and 1 ul of SAH, a known product and inhibitor of PRMT1, was added to columns 11, 12, 23, 24, rows I-P for the minimum signal control. A cocktail (40 ul) containing the PRMT1 enzyme was added by Multidrop Combi (Thermo-Fisher). The compounds were allowed to incubate with PRMT1 for 30 min at room temperature, then a cocktail (10 ul) containing SAM and peptide was added to initiate the reaction (final volume=51 ul). The final concentrations of the components were as follows: PRMT1 was 0.5 nM, ^3H-SAM was 200 nM, non-radiolabeled SAM was 1.5 uM, peptide was 20 nM, SAH in the minimum signal control wells was 1 mM, and the DMSO concentration was 2%. The assays were stopped by the addition of non-radiolabeled SAM (10 ul) to a final concentration of 300 uM, which dilutes the ^3H-SAM to a level where its incorporation into the peptide substrate is no longer detectable. 50 ul of the reaction in the 384-well polypropylene plate was then transferred to a 384-well Flashplate and the biotinylated peptides were allowed to bind to the streptavidin surface for at least 1 hour before being washed once with 0.1% Tween20 in a Biotek ELx405 plate washer. The plates were then read in a PerkinElmer TopCount plate reader to measure the quantity of ^3H-labeled peptide bound to the Flashplate surface, measured as disintegrations per minute (dpm) or alternatively, referred to as counts per minute (cpm).
Where dpm=disintegrations per minute, cmpd=signal in assay well, and min and max are the respective minimum and maximum signal controls.
Where top and bottom are the normally allowed to float, but may be fixed at 100 or 0 respectively in a 3-parameter fit. The Hill Coefficient normally allowed to float but may also be fixed at 1 in a 3-parameter fit. Y is the % inhibition and X is the compound concentration.

T1 sequence (Q99873 with tags, fused parts or gaps): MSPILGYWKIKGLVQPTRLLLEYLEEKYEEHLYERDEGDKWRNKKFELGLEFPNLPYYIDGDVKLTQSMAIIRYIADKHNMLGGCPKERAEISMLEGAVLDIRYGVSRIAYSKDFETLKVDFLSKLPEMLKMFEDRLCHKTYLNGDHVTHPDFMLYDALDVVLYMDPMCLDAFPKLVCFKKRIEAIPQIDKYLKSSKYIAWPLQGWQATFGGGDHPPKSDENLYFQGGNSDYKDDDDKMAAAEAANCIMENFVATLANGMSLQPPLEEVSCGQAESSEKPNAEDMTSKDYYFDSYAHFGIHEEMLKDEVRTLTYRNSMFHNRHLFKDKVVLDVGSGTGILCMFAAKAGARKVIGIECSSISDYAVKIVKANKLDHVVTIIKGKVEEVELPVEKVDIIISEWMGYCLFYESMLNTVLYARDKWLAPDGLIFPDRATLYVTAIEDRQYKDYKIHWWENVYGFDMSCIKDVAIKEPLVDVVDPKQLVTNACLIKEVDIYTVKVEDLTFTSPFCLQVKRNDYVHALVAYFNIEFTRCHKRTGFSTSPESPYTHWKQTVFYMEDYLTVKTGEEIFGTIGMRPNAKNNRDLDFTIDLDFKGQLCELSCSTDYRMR

Compound	IC50
CN(CCN)Cc1c[nH]nc1-c1cnn(-c2ccccc2)c1 [Compound 17]	≤ 100 nM
CN(CCN)Cc1c[nH]nc1-c1ccnn1C [Compound 15]	1010 to 3000 nM
CN(CCN)Cc1c[nH]nc1-c1ccc2cnn(C)c2c1 [Compound 19, N^1-methyl-N^1-((3-(1-methyl-1H-indazol-6-yl)-1H-pyrazol-4-yl)methyl)ethane-1,2-diamine]	≤ 100 nM
CN(CCN)Cc1c[nH]nc1-c1cccs1 [Compound 5]	101 to 1000 nM
CN(CCN)Cc1c[nH]nc1-c1cc[nH]n1 [Compound 14]	1010 to 3000 nM
CN(CCN)Cc1c[nH]nc1-c1cn[nH]c1 [Compound 12]	101 to 1000 nM
CN(CCN)Cc1c[nH]nc1-c1ccsc1 [Compound 3]	101 to 1000 nM
CCn1cc(-c2n[nH]cc2CN(C)CCN)cn1 [Compound 16]	≤ 100 nM
CN(CCN)Cc1c[nH]nc1-c1ccco1 [Compound 6]	101 to 1000 nM
CN(CCN)Cc1c[nH]nc1-c1cncnc1 [Compound 4]	101 to 1000 nM
CN(CCN)Cc1c[nH]nc1-c1cnn(CCO)c1 [Compound 18]	101 to 1000 nM
CN(CCN)Cc1c[nH]nc1-c1ccc2scnc2c1 [Compound 9]	≤ 100 nM
Cc1noc(C)c1-c1n[nH]cc1CN(C)CCN [Compound 10]	≥ 10000 nM
CN(CCN)Cc1c[nH]nc1-c1cnn(C)c1 [Compound 8]	101 to 1000 nM
CN(CCN)Cc1c[nH]nc1-c1cnc2[nH]ccc2c1 [Compound 13]	≤ 100 nM
CN(CCN)Cc1c[nH]nc1-c1ccoc1 [Compound 7]	101 to 1000 nM
COc1ncc(-c2n[nH]cc2CN(C)CCN)cn1 [Compound 11]	101 to 1000 nM

More lines, now with the values ahead:

IC50	Compound
≤ 100 nM	CC(C)Cn1cc(-c2n[nH]cc2CN(C)CCN)cn1 [Compound 23, N^1-((2′-isobutyl-3,4′-bi(1H-pyrazol)-4-yl)methyl)-N^1-methylethane-1,2-diamine]
≤ 100 nM	CN(CCN)Cc1c[nH]nc1-c1ccc2nccn2c1 [Compound 21, N^1-((3-(imidazo[1,2-a]pyridin-6-yl)-1H-pyrazol-4-yl)methyl)-N^1-methylethane-1,2-diamine]
≤ 100 nM	CN(CCN)Cc1c[nH]nc1-c1ccc2[nH]ncc2c1 [Compound 27, N^1-((3-(1H-indazol-5-yl)-1H-pyrazol-4-yl)methyl)-N^1-methylethane-1,2-diamine]
≤ 100 nM	CN(CCN)Cc1c[nH]nc1-c1cnn(Cc2ccccc2)c1 [Compound 24, N^1-((1′-benzyl-3,4′-bi(1H-pyrazol)-4-yl)methyl)-N^1-methylethane-1,2-diamine]
≤ 100 nM	CC(C)n1cc(-c2n[nH]cc2CN(C)CCN)cn1 [Compound 22]
≤ 100 nM	CN(CCN)Cc1c[nH]nc1-c1ccc2ncnn2c1 [Compound 20]
101 to 1000 nM	CN(CCN)Cc1c[nH]nc1-c1cnc(C2CC2)nc1 [Compound 28]
≥ 10000 nM	Cc1n[nH]c(C)c1-c1n[nH]cc1CN(C)CCN [Compound 25]
101 to 1000 nM	CN(CCN)Cc1c[nH]nc1-c1cccc2[nH]ncc12 [Compound 30]
1010 to 3000 nM	CN(CCN)Cc1c[nH]nc1-c1ccc[nH]1 [Compound 29]
